Read-outs that look alike come from different tables or passages of the source.
How the values were obtained:
[1] = tested on: histidine-requiring Salmonella typhimurium TA100 and TA98 strains; conditions: in the presence of S9mix; literature comparison compounds; cited from earlier work
[2] = molecular target: T1, Tg mouse intracerebral amyloid plaque (amyloid β protein) (Homo sapiens, UniProt P05067); test: Tg mice with amyloid β deposition: intravenous administration, ex-vivo fluorescence microscopy of brain sections; format: in vivo, Tg mouse (Tg2576 or APPswe2576/Tau JPL3)
T1 construct: a Tg mouse (Tg2576) with amyloid β protein deposition; from tissue

[3] = molecular target: T2, amyloid β protein (Homo sapiens, UniProt P05067); test: Staining test on a brain section of an Alzheimer disease patient (amyloid β protein); format: binding, human (Alzheimer disease patient); conditions: 100 μM compound in 50% ethanol, 10 minutes, fluorescence microscopy
T2 construct: from tissue; host or cells: paraffin-embedded human brain sections (temporal lobe, hippocampus) of Alzheimer disease patients
Excerpt: (1) Brain specimens at the temporal lobe and the hippocampus of patients to which a definitive diagnosis of Alzheimer disease had been given, and those of normal senile persons were used. The specimens were given by our coworker, Fukushimura Hospital, Longevity Medicine Institute, and we were given their consent of use of the specimens for our study purpose by the bereaved of the patients (Fukushimura Hospital Ethical Review Board Approval No. 20).
(2) The paraffin-embedded brain tissue was cut into slices having a thickness of 6 μm or 8 μm, and extended and dried on a slide. The paraffin brain section was processed for paraffin removal in xylene twice for 10 minutes, 100% ethanol twice for 5 minutes, 90% ethanol for 5 minutes and running water for 10 minutes in that order.
(3) For pretreatment prior to the staining treatment with a compound of the invention, the sections were processed for autofluorescence removal with lipofuscin. First, the paraffin-removed sections were dipped in 0.25% KMnO4 solution for 20 minutes. These were washed with PBS, twice for 2 minutes, then dipped in 0.1% K2S2O5/oxalic acid solution for about 5 seconds, and then further washed with PBS, three times for 2 minutes.
(4) About 150 μl of a 100 μM solution of a compound of the invention dissolved in 50% ethanol was dropwise applied to the section and reacted for 10 minutes. After dipped five times in tap water, the section was entrapped with Fluor Save Reagent (Calbiochem), and analyzed through microscopy with a fluorescence microscope (Nikon, Eclipse 80i). The images were taken with a digital camera (Nikon Dxm 1200F or Photometrics' Cool SNAP ES).

[4] = tested on: histidine-requiring Salmonella typhimurium TA100 and TA98 strains; test: Mutagenicity test (reverse mutation test); format: cell-based; conditions: for relative activity: irrespective of the absence or presence of S9mix
Experimental: In view of their use, it is desirable that the compounds of the invention have no mutagenicity or have little mutagenicity to a level causing no problem. For investigating the gene mutagenesis of the compounds of the invention, herein carried out was a reverse mutation test with histidine-requiring Salmonella typhimurium TA100 and TA98 strains. Two tests were carried out. One is a test for dose determination test; and the other is for mutagenicity.
The test methods and the mutagenicity of the compounds of the invention are mentioned below. In the dose determination test, six doses of 0.160, 0.800, 4.00, 20.0, 100 and 500 μg/plate (common ratio 5) were tried.
As a result of the dose determination test, when the mutagenicity of the test compound was admitted, then the actual test for mutagenicity was carried out, using the dose capable of giving an accurate dose-reaction curve. When no mutagenicity of the test compound was admitted in the dose determination test and when the growth inhibition of the test cells was admitted therein, then the dose to present the growth inhibition was taken as the maximum dose; and when the growth inhibition was not admitted, then a dose of 5000 μg/plate was taken as the maximum dose. With that, the actual test for mutagenicity was carried out on the level of 6 doses (common ratio 2).
First, a test compound was dissolved or suspended in DMSO, then diluted in order to prepare test compound liquids having a varying concentration.
100 μl of a test compound liquid or a negative control (DMSO) solution was put into a sterilized test tube. Then, for the case in the absence of a metabolic activation system (−S9mix), 500 μl of 0.1 mol/liter sodium-phosphate buffer (pH 7.4) was added to it; and for the case in the presence of a metabolic activation system (+S9mix), 500 μl of S9mix was added to it.
Next, 100 μl of the test strain suspension that had been cultivated with shaking at 37° C. for 8 hours was added to it, and preincubated in a shaking thermostat at 37° C. for 20 minutes. After shaken, 2 ml of top agar was added to it, and the contents were mixed.
Next, the mixture was poured onto a minimal glucose agar plate medium (plate) and spread uniformly thereon, then the top agar was solidified, and the plate was transferred into a thermostat and incubated at 37° C. for 48 hours.
Then, the number of the colonies grown through reverse mutation was counted.
For counting it, […]. After area correction and miss-counting correction, the number of the colonies was computed. When the colony analyzer could not be used owing to the deposition of the test compound or the cell growth inhibition, then the number of the colonies was counted with the naked eye.
In case where the number of the colonies through reverse mutation increased two times or more that of the negative control and where the dose dependency or the reproducibility of the increase was admitted, then the tested sample was decided as positive. When the sample was decided as positive, then the relative activity that indicates the relative comparative value of the intensity of the mutagenicity of the test compound was obtained according to the following formula:
Relative Activity={(number of colonies per plate having the concentration)−(number of colonies per negative control plate)}/the value of concentration (mg/plate).

[5] = Acute toxicity test, intravenous administration to mice; format: in vivo; conditions: mice observed for 7 days
Experimental: The compounds of the invention were tested for their acute toxicity through intravenous administration thereof to mice. Four Crj:CD1 male mice formed one test group, and some test groups of those mice were used (the mean body weight of the mice of each group was from 31 to 32 g). A test compound was dissolved in a mixture of 1 N HCl, polyethylene glycol-400 and distilled water, or dissolved in DMSO, and then diluted with distilled water. This was administered to each mouse via its tail vein.

T2 sequence (P05067 672-713 limits assumed): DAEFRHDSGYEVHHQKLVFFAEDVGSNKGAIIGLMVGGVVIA
T1 sequence (P05067 672-713 limits assumed): as above

Compound | relative activity [1] | binding to amyloid β protein in the brain section of an Alzheimer disease patient [3] | relative activity [4] | also measured
CC(=C(C#N)C#N)c1ccc2cc(N(C)CCF)ccc2c1 [FDDNP] | extremely high | – | – | –
CN(C)c1ccc(-c2cn3cc(I)ccc3n2)cc1 [IMPY] | extremely high | – | – | –
Cc1cc2nc(/C=C/c3ccc(N4CCOCC4)s3)sc2cc1C [THK-097, 5,6-dimethyl-2-[2-(5-morpholin-4-yl-thiophen-2-yl)vinyl]-benzothiazole] | – | bound to the amyloid β protein | minus | passage through the blood-brain barrier and binding to Tg mouse intracerebral amyloid plaque ([2]; intravenous administration via tail vein, brain fixed after 1 hour, fluorescence microscopy (THK-097 0.2 mg/kg; THK-525, THK-727, THK-702 4 mg/kg)): passed through the blood-brain barrier, and bound to the Tg mouse intracerebral amyloid plaque; Relative Activity in the absence of S9Mix ([4]; (colonies per plate − colonies per negative control plate)/concentration (mg/plate), in the absence of S9Mix as printed in head): minus; Relative Activity in the presence of S9Mix ([4]; (colonies per plate − colonies per negative control plate)/concentration (mg/plate), in the presence of S9Mix as printed in head): minus^1)
OCC(CF)Oc1ccc2nc(/C=C/c3cnc(N4CCOCC4)s3)oc2c1 (centres unmarked) [THK-702, (E)-2-[2-(2-morpholinothiazol-5-yl)ethenyl]-6-[(1-fluoromethyl-2-hydroxy)ethoxy]-benzoxazole] | – | The white space arrow indicates amyloid β protein | minus | correspondence of binding site with anti-Aβ antibody-stained site of the same section ([2]; Tg2576 mouse, 4 mg/kg intravenous, antibody 4G8): completely corresponded to the anti-Aβ antibody-stained site of the same section; Maximum Permissible Dose [5]: ≧10 mg/kg
